According to patent US7754707B2, “Methods of treatment of chronic immune disease” (R.E.D. Laboratories, N.V./S.A., priority 2002, dated 2010):
Entries after “also recorded” stand apart in the source; their conditions may differ.

Experiments:
elastase = biological target: T1, elastase (Homo sapiens, UniProt P08246); experiment: Fragmentation of radio labeled rRNase L by cytoplasmic protein extracts of cefoperazone-treated U937 cells; type: cell-based; conditions: extracts of U937 cells treated 72 hours with 10-1000 micrograms/mL; 15 micrograms extract, 5 minutes at 37 C; FIG. 4
T1 construct: 15 micrograms of U937 cell cytoplasmic protein extract was mixed with 0.1 microgram of ^32P-2-5A-radio labeled rRNase L; endogenous in cells; host or cells: U937 cells (cytoplasmic protein extract)
T1 sequence (P08246 30-267): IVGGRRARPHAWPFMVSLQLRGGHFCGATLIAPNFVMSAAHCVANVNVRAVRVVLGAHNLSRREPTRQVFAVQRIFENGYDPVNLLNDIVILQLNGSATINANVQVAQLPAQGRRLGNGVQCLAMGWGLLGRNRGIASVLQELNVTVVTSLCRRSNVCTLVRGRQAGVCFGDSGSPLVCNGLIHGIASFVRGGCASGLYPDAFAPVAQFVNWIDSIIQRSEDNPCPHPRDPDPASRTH
Protocol: (§1) In the first condition (Regimen #1), confluent cultures of U937 cells were allowed to remain in culture for an additional 7 days without feeding or media supplementation in order to induce the cells to begin to undergo apoptosis, resulting in the fragmentation of native RNase L (among other proteins).
Briefly, 15 micrograms of U937 cell cytoplasmic protein extract was mixed with 0.1 microgram of ^32P-2-5A-radio labeled rRNase L for a fixed incubation period (5 minutes) at 37 C. The reaction was terminated by the addition of 2×SDS-PAGE loading buffer, the samples were prepared and electrophoresed as described above and analyzed using densitometry.

alpha-1-antitrypsin = conditions: through direct interaction of the drug with HOCl; cited from earlier work
[1] = tested on: RNase L Protein in the Human Monocytic Leukemia Cell Line U937; experiment: RNase L fragmentation (2-5A binding proteins) in U937 cells, treatment Regimen #1; type: cell-based; conditions: FIGS. 2 and 3 (Regimens #1 and #2)
Text: as §1

SMILES: CCN1CCN(C(=O)N[C@@H](C(=O)N[C@@H]2C(=O)N3C(C(=O)O)=C(CSc4nnnn4C)CS[C@H]23)c2ccc(O)cc2)C(=O)C1=O [cefoperazone]
- elastase activity (amount of LMW rRNase L protein generated from pre-labeled HMW rRNase L) (elastase): inhibition occurs in a dose-dependent fashion; also recorded: marked inhibition of elastase activity
- level of inactivation of alpha-1-antitrypsin by activated neutrophils (alpha-1-antitrypsin): reduce the level of inactivation of alpha-1-antitrypsin
- production of the low molecular weight fragment of native RNase L protein [1]: inhibition is dose-dependent
